Source: PMC11249646, “Small-Molecule Disruptors of the Interaction between Calcium- and Integrin-Binding Protein 1 and Integrin αIIbβ3 as Novel Antiplatelet Agents” (ACS Pharmacology & Translational Science, 2024)
Read-outs that look alike come from different tables or passages of the source.

Assays:
[1] = target: T1, GST-CIB1 : F-scrambled peptide (Homo sapiens, UniProt Q99828); experiment: FP scrambled-peptide counter screen, 1536-well format; format: binding; conditions: for Curve Class (counterscreen) / COUNTERSCREEN Curve Class: qHTS curve class
T1 construct: made in house; host or cells: BL-21 plus RIL cells (E. coli)
T1 sequence (Q99828 1-191): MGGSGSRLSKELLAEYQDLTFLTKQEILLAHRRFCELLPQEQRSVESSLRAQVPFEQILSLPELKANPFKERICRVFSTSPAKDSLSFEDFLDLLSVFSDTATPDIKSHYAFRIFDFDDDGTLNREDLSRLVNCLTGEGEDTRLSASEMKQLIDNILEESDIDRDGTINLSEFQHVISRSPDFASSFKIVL

[2] = target: T2, CIB1 and αIIb interaction (CIB1-GST : F-αIIb peptide) (Homo sapiens, UniProt Q99828); experiment: FP assay, 1536-well qHTS format (primary and confirmatory screen); format: binding; conditions: for Curve Class (confirmatory screen) / CONFIRMATORY SCREEN Curve Class: qHTS curve class
T2 construct: made in house; host or cells: BL-21 plus RIL cells (E. coli)
T2 sequence (Q99828 1-191): T1 sequence (Q99828 1-191)

[3] = Table S3, counterscreen, a negative sign marks inhibitory curves
[4] = Table S3, counterscreen, negative = inhibition
[5] = Table S3, counterscreen, read-out: IC50 [μM] (counterscreen)
[6] = Table S3, confirmatory screen, YES/NO call
[7] = Table S3, confirmatory screen, a negative sign marks inhibitory curves
[8] = Table S3, confirmatory screen, negative = inhibition
[9] = Table S3, confirmatory screen, read-out: IC50 [μM] (confirmatory screen)
[10] = qHTS primary screen hits, Table S2, negative = inhibition
[11] = qHTS primary screen hits, Table S2, read-out: IC50
[12] = qHTS FP screen hits, Table S2, negative = inhibition
[13] = qHTS FP screen hits, Table S2, read-out: IC50
[14] = counterscreen, negative sign = inhibitory curve
[15] = counterscreen, read-out: IC50 [μM] (counterscreen)
[16] = confirmatory screen, negative sign = inhibitory curve
[17] = confirmatory screen, read-out: IC50 [μM] (confirmatory screen)
[18] = qHTS primary screen hits, Table S2, negative sign = inhibitory curve, several classes where COUNT > 1
[19] = scrambled-peptide counterscreen
[20] = scrambled-peptide counterscreen, YES/NO call
[21] = confirmatory screen, YES/NO call
[22] = confirmatory screen, negative = inhibition
[23] = confirmatory screen, read-out: CONFIRMATORY SCREEN IC50

Compound | Curve Class (counterscreen) [1, 3] | Efficacy (%) (counterscreen) [1, 4] | IC50 [1, 5] [µM] | Confirm? (confirmatory screen) [2, 6] | Curve Class (confirmatory screen) [2, 7] | Efficacy (%) (confirmatory screen) [2, 8] | IC50 [2, 9] [µM] | Efficacy (%) [2, 10] [%] | IC50 [2, 11] [µM] | Curve Class [2, 18] | also measured
O=C(O)C(F)(F)F.O=C1Nc2ccccc2/C1=N/NC(=S)Nc1ccc(Oc2ccccc2)cc1 [NCGC00229524-01] | -1.4 | -38 | 4 | YES | -1.4 | -29 | 12.6 | -25 | 2.8 | – | Curve Class ([2]; qHTS primary screen hits, Table S2, negative sign = inhibitory curve): -1.4
O=C(O)C(F)(F)F.O=C1Nc2ccccc2/C1=N/NC(=S)Nc1ccc(O)cc1 [NCGC00229525-01] | -1.2 | -61 | 6.3 | YES | -1.4 | -32 | 11.2 | – | – | – | Efficacy (%) [2, 12]: -42%; Curve Class ([2]; qHTS FP screen hits, Table S2, one class per curve where COUNT > 1, negative sign = inhibitory curve): -1.2; IC50 [2, 13]: 8.9 µM
CN(C)c1ccc(NC(=S)N/N=C2\C(=O)Nc3ccccc32)cc1.O=C(O)C(F)(F)F [NCGC00229526-01] | – | – | – | – | – | – | – | -38 | 3.5 | -1.2 | Efficacy (%) (counterscreen) ([1]; counterscreen): -44%; Curve Class (counterscreen) [1, 14]: -1.2; IC50 [1, 15]: 22.4 µM; Efficacy (%) (confirmatory screen) ([2]; confirmatory screen): -73%; Confirm? (confirmatory screen) ([2]; confirmatory screen, YES/NO): YES; Curve Class (confirmatory screen) [2, 16]: -1.4; IC50 [2, 17]: 10 µM
CNC(=S)N/N=C1\C(=O)Nc2ccccc21.O=C(O)C(F)(F)F [NCGC00229528-01] | – | – | – | – | – | – | – | -26 | 7.9 | -1.4 | COUNTERSCREEN Efficacy (%) [1, 19]: -28%; COUNTERSCREEN Confirm? [1, 20]: YES; COUNTERSCREEN Curve Class [1, 19]: 4; CONFIRMATORY SCREEN Confirm? [2, 21]: YES; CONFIRMATORY SCREEN Curve Class [2, 16]: -1.4; CONFIRMATORY SCREEN Efficacy (%) [2, 22]: -28%; IC50 [2, 23]: 14.1 µM
O=C(O)C(F)(F)F.O=C1Nc2ccccc2/C1=N/NC(=S)Nc1ccc(C(=O)O)cc1 [NCGC00229530-01] | -1.2 | -65 | 12.6 | – | 4 | -47 | – | – | – | – | Confirm? (counterscreen) ([1]; Table S3, counterscreen, YES/NO call): YES; Efficacy (%) [2, 12]: -32%; IC50 [2, 13]: 8.9 µM
CC(C)NC(=S)N/N=C1\C(=O)Nc2ccccc21.O=C(O)C(F)(F)F [NCGC00229535-01] | – | – | – | – | – | – | – | – | – | – | COUNTERSCREEN Efficacy (%) [1, 19]: -45%; COUNTERSCREEN Confirm? [1, 20]: YES; COUNTERSCREEN Curve Class [1, 19]: -1.2; IC50 ([1]; scrambled-peptide counterscreen, read-out: COUNTERSCREEN IC50): 11.2 µM; CONFIRMATORY SCREEN Confirm? [2, 21]: YES; CONFIRMATORY SCREEN Curve Class [2, 16]: -1.4; CONFIRMATORY SCREEN Efficacy (%) [2, 22]: -48%; IC50 [2, 23]: 2.8 µM; Efficacy (%) [2, 12]: -24%; IC50 [2, 13]: 12.6 µM
O=C(O)C(F)(F)F.O=C1Nc2ccccc2/C1=N/NC(=S)Nc1c(F)cc(F)cc1F [NCGC00229537-01] | – | – | – | – | – | – | – | -30 | 12.6 | -1.4 | COUNTERSCREEN Efficacy (%) ([1]; counterscreen): -11%; COUNTERSCREEN Curve Class ([1]; counterscreen): 4; CONFIRMATORY SCREEN Efficacy (%) ([2]; confirmatory screen): -26%; CONFIRMATORY SCREEN Curve Class ([2]; confirmatory screen): 4
CCCCNC(=S)N/N=C1\C(=O)Nc2ccccc21.O=C(O)C(F)(F)F [NCGC00229539-01] | -1.2 | -50 | 11.2 | YES | -2.4 | -49 | 50.1 | -32 | 17.8 | -1.2 | –
O=C(O)C(F)(F)F.O=C1Nc2ccccc2/C1=N/NC(=S)Nc1ccccc1 [NCGC00229542-01] | – | – | – | – | – | – | – | -27 | 10 | -1.4 | Efficacy (%) (counterscreen) ([1]; counterscreen): -34%; Curve Class (counterscreen) [1, 14]: -1.2; IC50 [1, 15]: 4.5 µM; Efficacy (%) (confirmatory screen) ([2]; confirmatory screen): -50%; Confirm? (confirmatory screen) ([2]; confirmatory screen, YES/NO): YES; Curve Class (confirmatory screen) [2, 16]: -1.4; IC50 [2, 17]: 3.2 µM
O=C(O)C(F)(F)F.O=C1Nc2ccccc2/C1=N/NC(=S)NCc1ccccc1 [NCGC00229543-01] | 4 | -27 | – | – | 4 | -33 | – | -24 | 7.9 | -1.4 | –
O=C(O)C(F)(F)F.O=C(O)c1ccc(-c2ccc3ncnc(N4CCOCC4)c3c2)o1 [NCGC00229619-01] | -2.4 | -53 | 5.6 | YES | -1.4 | -29 | 10 | -16 | 4 | -1.4 | –
